Laboratory results taken from patent US20220388964A1 (HiberCell, Inc., priority 2019, published 2022).

Target: GCN2 (Homo sapiens, UniProt Q9P2K8)
Test: TR-FRET biochemical assay for inhibition of GCN2 (Example 108, for Examples 73-105)

Sequence of GCN2 (Q9P2K8 whole entry): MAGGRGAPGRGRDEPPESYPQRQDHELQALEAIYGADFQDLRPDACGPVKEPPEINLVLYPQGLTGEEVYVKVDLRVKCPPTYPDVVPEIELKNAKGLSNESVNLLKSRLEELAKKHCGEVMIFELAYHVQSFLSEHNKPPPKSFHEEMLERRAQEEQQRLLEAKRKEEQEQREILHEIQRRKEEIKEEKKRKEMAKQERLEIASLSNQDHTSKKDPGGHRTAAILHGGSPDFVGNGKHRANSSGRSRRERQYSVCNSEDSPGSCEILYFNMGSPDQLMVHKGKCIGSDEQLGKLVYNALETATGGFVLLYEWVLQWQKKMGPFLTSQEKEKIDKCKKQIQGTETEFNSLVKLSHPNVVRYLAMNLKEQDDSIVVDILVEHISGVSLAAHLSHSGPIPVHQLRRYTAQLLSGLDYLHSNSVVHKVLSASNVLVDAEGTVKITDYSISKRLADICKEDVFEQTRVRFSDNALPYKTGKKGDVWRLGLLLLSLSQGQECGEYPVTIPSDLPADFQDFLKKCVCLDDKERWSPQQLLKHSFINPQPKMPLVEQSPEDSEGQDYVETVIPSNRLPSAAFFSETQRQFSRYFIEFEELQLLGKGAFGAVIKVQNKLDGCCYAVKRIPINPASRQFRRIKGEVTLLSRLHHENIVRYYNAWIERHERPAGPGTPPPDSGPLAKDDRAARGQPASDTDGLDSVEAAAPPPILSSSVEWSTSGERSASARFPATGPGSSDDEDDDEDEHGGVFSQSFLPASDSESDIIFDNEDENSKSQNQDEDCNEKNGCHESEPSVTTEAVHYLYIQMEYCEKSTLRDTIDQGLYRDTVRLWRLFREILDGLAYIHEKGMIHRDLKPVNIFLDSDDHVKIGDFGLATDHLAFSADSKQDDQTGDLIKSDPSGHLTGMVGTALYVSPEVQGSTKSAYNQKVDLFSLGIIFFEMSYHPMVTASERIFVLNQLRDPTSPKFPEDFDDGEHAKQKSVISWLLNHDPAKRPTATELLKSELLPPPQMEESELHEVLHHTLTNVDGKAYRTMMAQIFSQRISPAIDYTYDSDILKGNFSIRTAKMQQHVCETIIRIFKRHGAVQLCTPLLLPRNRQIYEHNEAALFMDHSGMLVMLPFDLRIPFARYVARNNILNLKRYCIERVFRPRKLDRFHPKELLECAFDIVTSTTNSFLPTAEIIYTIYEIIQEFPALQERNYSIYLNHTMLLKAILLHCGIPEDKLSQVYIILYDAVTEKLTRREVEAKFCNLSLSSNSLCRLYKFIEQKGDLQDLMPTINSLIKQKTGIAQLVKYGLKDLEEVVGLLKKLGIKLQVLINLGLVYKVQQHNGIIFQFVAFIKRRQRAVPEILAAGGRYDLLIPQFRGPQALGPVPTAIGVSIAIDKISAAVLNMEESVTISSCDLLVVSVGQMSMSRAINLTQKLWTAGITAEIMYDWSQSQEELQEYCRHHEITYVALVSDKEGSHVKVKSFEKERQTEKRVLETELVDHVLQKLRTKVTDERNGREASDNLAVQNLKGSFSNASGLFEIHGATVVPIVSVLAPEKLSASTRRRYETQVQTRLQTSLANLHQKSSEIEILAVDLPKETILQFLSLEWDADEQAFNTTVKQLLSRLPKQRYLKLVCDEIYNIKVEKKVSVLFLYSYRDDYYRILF

With CNC(=O)c1n[nH]c2c(F)c(-c3c(F)ccc(NS(=O)(=O)c4cc(F)cc5c4CCC5O)c3F)ccc12 (stereo not shown) [Example 76, 6-[2,6-Difluoro-3-(6-fluoro-1-hydroxy-2,3-dihydro-1H-indene-4-sulfonamido)phenyl]-7-fluoro-N-methyl-1H-indazole-3-carboxamide] the IC50 was < 500 nM.
In the case of COc1ncc(Cl)cc1S(=O)(=O)Nc1ccc(F)c(-c2ccc3c(C(=O)NC4CCCCC4O)n[nH]c3c2F)c1F (stereo not shown) [Example 88, 6-[3-(5-Chloro-2-methoxypyridine-3-sulfonamido)-2,6-difluorophenyl]-7-fluoro-N-(2-hydroxycyclohexyl)-1H-indazole-3-carboxamide], the IC50 is reported as < 500 nM.
In the case of COc1ncc(Cl)cc1S(=O)(=O)Nc1ccc(F)c(-c2ccc3c(C(=O)NC4CCCC(N)C4)n[nH]c3c2F)c1F (stereo not shown) [Example 98, N-(3-Aminocyclohexyl)-6-[3-(5-chloro-2-methoxypyridine-3-sulfonamido)-2,6-difluorophenyl]-7-fluoro-1H-indazole-3-carboxamide], the IC50 is reported as < 500 nM.
In the case of COc1ncc(Cl)cc1S(=O)(=O)Nc1ccc(F)c(-c2ccc3c(C(=O)NCC4CCN(C)C4)n[nH]c3c2F)c1F (stereo not shown) [Example 100, 6-[3-(5-Chloro-2-methoxypyridine-3-sulfonamido)-2,6-difluorophenyl]-7-fluoro-N-[(1-methylpyrrolidin-3-yl)methyl]-1H-indazole-3-carboxamide], the IC50 is reported as < 500 nM.
In the case of COc1ncc(Cl)cc1S(=O)(=O)Nc1ccc(F)c(-c2ccc3c(C(=O)NC4CCC(O)C4)n[nH]c3c2F)c1F (stereo not shown) [Example 97, 6-[3-(5-Chloro-2-methoxypyridine-3-sulfonamido)-2,6-difluorophenyl]-7-fluoro-N-(3-hydroxycyclopentyl)-1H-indazole-3-carboxamide], the IC50 is reported as < 500 nM.
COc1ncc(Cl)cc1S(=O)(=O)Nc1ccc(F)c(-c2ccc3c(C(=O)NC(C#N)C4CC4)n[nH]c3c2F)c1F (stereo not shown) [Example 91, 6-[3-(5-Chloro-2-methoxypyridine-3-sulfonamido)-2,6-difluorophenyl]-N-[cyano(cyclopropyl)methyl]-7-fluoro-1H-indazole-3-carboxamide] was tested, and the IC50 was < 500 nM.
C#CC(C)(C)NC(=O)c1n[nH]c2c(F)c(-c3c(F)ccc(NS(=O)(=O)c4cc(Cl)cnc4OC)c3F)ccc12 [Example 89, 6-[3-(5-Chloro-2-methoxypyridine-3-sulfonamido)-2,6-difluorophenyl]-7-fluoro-N-(2-methylbut-3-yn-2-yl)-1H-indazole-3-carboxamide] was tested, and the IC50 was < 500 nM.
With COc1ncc(Cl)cc1S(=O)(=O)Nc1ccc(F)c(-c2ccc3c(C(=O)NCC4CCOCC4)n[nH]c3c2F)c1F [Example 82] the IC50 was < 500 nM.
Work on CNC(=O)c1n[nH]c2c(F)c(-c3c(F)ccc(NS(=O)(=O)CC4CCCC4)c3F)ccc12 [Example 74, 6-[3-(cyclopentylmethanesulfonamido)-2,6-difluorophenyl]-7-fluoro-N-methyl-1H-indazole-3-carboxamide] yielded an IC50 of 2500 to 10000 nM.
COc1ncc(Cl)cc1S(=O)(=O)Nc1ccc(F)c(-c2ccc3c(C(=O)NCCN4CCCC4=O)n[nH]c3c2F)c1F [Example 99, 6-[3-(5-Chloro-2-methoxypyridine-3-sulfonamido)-2,6-difluorophenyl]-7-fluoro-N-[2-(2-oxopyrrolidin-1-yl)ethyl]-1H-indazole-3-carboxamide] was tested, and the IC50 was < 500 nM.
CNC(=O)c1n[nH]c2c(F)c(-c3c(F)ccc(NS(=O)(=O)C4CCOCC4)c3F)ccc12 [Example 75, 6-[2,6-difluoro-3-(oxane-4-sulfonamido)phenyl]-7-fluoro-N-methyl-1H-indazole-3-carboxamide] gave an IC50 of 2500 to 10000 nM.
In the case of COc1ncc(Cl)cc1S(=O)(=O)Nc1ccc(F)c(-c2ccc3c(C(=O)NC4CCC(=O)CC4)n[nH]c3c2F)c1F [Example 96, 6-[3-(5-Chloro-2-methoxypyridine-3-sulfonamido)-2,6-difluorophenyl]-7-fluoro-N-(4-oxocyclohexyl)-1H-indazole-3-carboxamide], the IC50 is reported as < 500 nM.
Work on COc1ncc(Cl)cc1S(=O)(=O)Nc1ccc(F)c(-c2ccc3c(C(=O)NC4CCCCC4N)n[nH]c3c2F)c1F (stereo not shown) [Example 94, N-(2-Aminocyclohexyl)-6-[3-(5-chloro-2-methoxypyridine-3-sulfonamido)-2,6-difluorophenyl]-7-fluoro-1H-indazole-3-carboxamide] yielded an IC50 of 500 to 2500 nM.
With COc1ncc(Cl)cc1S(=O)(=O)Nc1ccc(F)c(-c2ccc3c(C(=O)NC4CC4)n[nH]c3c2F)c1F [Example 81, 6-[3-(5-Chloro-2-methoxypyridine-3-sulfonamido)-2,6-difluorophenyl]-N-cyclopropyl-7-fluoro-1H-indazole-3-carboxamide] the IC50 was < 500 nM.
With COc1ncc(Cl)cc1S(=O)(=O)Nc1ccc(F)c(-c2ccc3c(C(=O)NCCN4CCCC4)n[nH]c3c2F)c1F [Example 83, 6-[3-(5-chloro-2-methoxypyridine-3-sulfonamido)-2,6-difluorophenyl]-7-fluoro-N-[2-(pyrrolidin-1-yl)ethyl]-1H-indazole-3-carboxamide] the IC50 was < 500 nM.
COc1ncc(Cl)cc1S(=O)(=O)Nc1ccc(F)c(-c2ccc3c(C(=O)NCCS(C)(=O)=O)n[nH]c3c2F)c1F [Example 84, 6-[3-(5-Chloro-2-methoxypyridine-3-sulfonamido)-2,6-difluorophenyl]-7-fluoro-N-(2-methanesulfonylethyl)-1H-indazole-3-carboxamide] was tested, and the IC50 was < 500 nM.
In the case of COc1ncc(Cl)cc1S(=O)(=O)Nc1ccc(F)c(-c2ccc3c(C(=O)NC4CCCC4)n[nH]c3c2F)c1F [Example 79, 6-[3-(5-Chloro-2-methoxypyridine-3-sulfonamido)-2,6-difluorophenyl]-N-cyclopentyl-7-fluoro-1H-indazole-3-carboxamide], the IC50 is reported as < 500 nM.
For COc1ncc(Cl)cc1S(=O)(=O)Nc1ccc(F)c(-c2ccc3c(C(=O)NC4CCCC(O)C4)n[nH]c3c2F)c1F (stereo not shown) [Example 80, 6-[3-(5-Chloro-2-methoxypyridine-3-sulfonamido)-2,6-difluorophenyl]-7-fluoro-N-(3-hydroxycyclohexyl)-1H-indazole-3-carboxamide], the IC50 was < 500 nM.
For COc1ncc(Cl)cc1S(=O)(=O)Nc1ccc(F)c(-c2ccc3c(C(=O)NCCN4CCOCC4)n[nH]c3c2F)c1F [Example 86, 6-[3-(5-Chloro-2-methoxypyridine-3-sulfonamido)-2,6-difluorophenyl]-7-fluoro-N-[2-(morpholin-4-yl)ethyl]-1H-indazole-3-carboxamide], the IC50 was < 500 nM.
In the case of COc1ncc(Cl)cc1S(=O)(=O)Nc1ccc(F)c(-c2ccc3c(C(=O)NC(C)CN)n[nH]c3c2F)c1F (stereo not shown) [Example 95, N-(1-Aminopropan-2-yl)-6-[3-(5-chloro-2-methoxypyridine-3-sulfonamido)-2,6-difluorophenyl]-7-fluoro-1H-indazole-3-carboxamide], the IC50 is reported as < 500 nM.
In the case of COc1ncc(Cl)cc1S(=O)(=O)Nc1ccc(F)c(-c2ccc3c(C(=O)NC4CCCC4O)n[nH]c3c2F)c1F (stereo not shown) [Example 87, 6-[3-(5-Chloro-2-methoxypyridine-3-sulfonamido)-2,6-difluorophenyl]-7-fluoro-N-(2-hydroxycyclopentyl)-1H-indazole-3-carboxamide], the IC50 is reported as < 500 nM.
With COc1ncc(Cl)cc1S(=O)(=O)Nc1ccc(F)c(-c2ccc3c(C(=O)NCC(F)(F)F)n[nH]c3c2F)c1F [Example 90, 6-[3-(5-Chloro-2-methoxypyridine-3-sulfonamido)-2,6-difluorophenyl]-7-fluoro-N-(2,2,2-trifluoroethyl)-1H-indazole-3-carboxamide] the IC50 was < 500 nM.
